Test results as given in ChEMBL document CHEMBL1201862, “PubChem BioAssay data set” (2004).
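Dose response: 5 concentrations. Exposure: 48 h. Format: 96-well plates. Endpoint: linear interpolation; highest concentration if not reached. At the GI50, growth is halved.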 The source made the active and inactive calls. Cut-off read from the data, not from the text of the source: active = GI50 up to about 1.1 µM and inactive = higher.

Tests used:
Assay in all cases: NCI tumour cell line growth inhibition, 48 h
HOP-62 = system: HOP-62
MCF7 = system: MCF7
T47D = system: T47D
SW-620 = system: SW-620
SNB-75 = system: SNB-75
UACC-257 = system: UACC-257
Malme-3M = system: Malme-3M
OVCAR-4 = system: OVCAR-4
A498 = system: A498
SF-268 = system: SF-268
LOX IMVI = system: LOX IMVI
UACC-62 = system: UACC-62
SN12C = system: SN12C
SK-MEL-28 = system: SK-MEL-28
SF-539 = system: SF-539
PC-3 = system: PC-3
SK-MEL-2 = system: SK-MEL-2
IGROV-1 = system: IGROV-1
DU-145 = system: DU-145
K562 = system: K562

Row | Structure (SMILES) | GI50 (HOP-62) | GI50 (MCF7) | GI50 (T47D) | GI50 (SW-620) | GI50 (SNB-75) | GI50 (UACC-257) | GI50 (Malme-3M) | GI50 (OVCAR-4) | GI50 (A498) | GI50 (SF-268) | GI50 (LOX IMVI) | GI50 (UACC-62) | GI50 (SN12C) | GI50 (SK-MEL-28) | GI50 (SF-539) | GI50 (PC-3) | GI50 (SK-MEL-2) | GI50 (IGROV-1) | GI50 (DU-145) | GI50 (K562)
1 | Cc1cccc(CNc2[nH]cnc3nncc2-3)c1 | > 100 µM (inactive) | > 100 µM (inactive) | 78.3 µM (inactive) | > 100 µM (inactive) | 53.5 µM (inactive) | 76.6 µM (inactive) | > 100 µM (inactive) | 87.7 µM (inactive) | 40.6 µM (inactive) | > 100 µM (inactive) | > 100 µM (inactive) | > 100 µM (inactive) | 72.8 µM (inactive) | > 100 µM (inactive) | > 100 µM (inactive) | > 100 µM (inactive) | > 100 µM (inactive) | 64.4 µM (inactive) | > 100 µM (inactive) | 47.1 µM (inactive)
2 | Cn1c(=O)c2nc(COCc3nc4c(=O)n(C)c(=O)n(C)c4[nH]3)[nH]c2n(C)c1=O | > 100 µM (inactive) | > 100 µM (inactive) | > 100 µM (inactive) | > 100 µM (inactive) | > 100 µM (inactive) | > 100 µM (inactive) | > 100 µM (inactive) | > 100 µM (inactive) | > 100 µM (inactive) | > 100 µM (inactive) | > 100 µM (inactive) | > 100 µM (inactive) | > 100 µM (inactive) | > 100 µM (inactive) | > 100 µM (inactive) | > 100 µM (inactive) | > 100 µM (inactive) | > 100 µM (inactive) | > 100 µM (inactive) | > 100 µM (inactive)
3 | Cc1c(C)n(-c2ccccc2)c2nc(S(C)(=O)=O)nc(S(C)(=O)=O)c12 | 16.8 µM (inactive) | 1.25 µM (inactive) | 2.05 µM (inactive) | 0.228 µM (active) | 19.3 µM (inactive) | 1.64 µM (inactive) | 1.4 µM (inactive) | 1.65 µM (inactive) | 14.1 µM (inactive) | 14 µM (inactive) | 1.71 µM (inactive) | 3.28 µM (inactive) | 17.8 µM (inactive) | 2.53 µM (inactive) | 14 µM (inactive) | 5.06 µM (inactive) | 2.07 µM (inactive) | 4.72 µM (inactive) | 14.6 µM (inactive) | 1.4 µM (inactive)
4 | c1ccc(CSCCC(SCc2ccccc2)SCc2ccccc2)cc1 | > 10 µM (inactive) | > 10 µM (inactive) | > 10 µM (inactive) | > 10 µM (inactive) | > 10 µM (inactive) | > 10 µM (inactive) | > 10 µM (inactive) | > 10 µM (inactive) | > 10 µM (inactive) | > 10 µM (inactive) | > 10 µM (inactive) | > 10 µM (inactive) | > 10 µM (inactive) | > 10 µM (inactive) | > 10 µM (inactive) | > 10 µM (inactive) | > 10 µM (inactive) | > 10 µM (inactive) | > 10 µM (inactive) | > 10 µM (inactive)
5 | O=C1CC(Br)c2c(Br)sc(Br)c21 (stereo not given) | 20.9 µM (inactive) | 16.5 µM (inactive) | 17.6 µM (inactive) | 10.5 µM (inactive) | 23.1 µM (inactive) | 15.7 µM (inactive) | 19.7 µM (inactive) | 17.3 µM (inactive) | 91.4 µM (inactive) | 23.9 µM (inactive) | 14.3 µM (inactive) | 17.1 µM (inactive) | 15.6 µM (inactive) | 32 µM (inactive) | 24.5 µM (inactive) | 19.1 µM (inactive) | 18.5 µM (inactive) | 16.6 µM (inactive) | 20.7 µM (inactive) | 7.73 µM (inactive)
6 | O=c1[nH]c(=O)n(C2OC(CO)C(O)C2O)c2c1CCCC2 (stereo not given) | > 100 µM (inactive) | > 100 µM (inactive) | > 100 µM (inactive) | > 100 µM (inactive) | > 100 µM (inactive) | > 100 µM (inactive) | > 100 µM (inactive) | > 100 µM (inactive) | > 100 µM (inactive) | > 100 µM (inactive) | > 100 µM (inactive) | > 100 µM (inactive) | > 100 µM (inactive) | > 100 µM (inactive) | > 100 µM (inactive) | > 100 µM (inactive) | > 100 µM (inactive) | > 100 µM (inactive) | > 100 µM (inactive) | > 100 µM (inactive)
7 | C=CC(O)(CBr)CCC(Br)C(=C)C (stereo not given) | > 10 µM (inactive) | > 10 µM (inactive) | > 10 µM (inactive) | > 10 µM (inactive) | > 10 µM (inactive) | > 10 µM (inactive) | > 10 µM (inactive) | > 10 µM (inactive) | > 10 µM (inactive) | > 10 µM (inactive) | > 10 µM (inactive) | > 10 µM (inactive) | > 10 µM (inactive) | > 10 µM (inactive) | > 10 µM (inactive) | > 10 µM (inactive) | > 10 µM (inactive) | > 10 µM (inactive) | > 10 µM (inactive) | > 10 µM (inactive)
8 | O=C(O)C1(Cc2ccc3c(c2)CCC3)Cc2ccccc2C1 | 84.5 µM (inactive) | > 100 µM (inactive) | 49.2 µM (inactive) | > 100 µM (inactive) | 67.1 µM (inactive) | > 100 µM (inactive) | 71.3 µM (inactive) | 23.3 µM (inactive) | 36.1 µM (inactive) | 52.7 µM (inactive) | 87.1 µM (inactive) | 76.6 µM (inactive) | > 100 µM (inactive) | 60.8 µM (inactive) | > 100 µM (inactive) | 63.5 µM (inactive) | > 100 µM (inactive) | > 100 µM (inactive) | > 100 µM (inactive) | 56.8 µM (inactive)
9 | O=C[C@@H](CO)O[C@H](C=O)n1cnc2c(=O)nc[nH]c21 | 264 µM (inactive) | 91.2 µM (inactive) | 60.5 µM (inactive) | 126 µM (inactive) | 667 µM (inactive) | 378 µM (inactive) | 301 µM (inactive) | 399 µM (inactive) | 673 µM (inactive) | 431 µM (inactive) | 86.9 µM (inactive) | 375 µM (inactive) | 266 µM (inactive) | 369 µM (inactive) | 490 µM (inactive) | 376 µM (inactive) | 318 µM (inactive) | 188 µM (inactive) | 261 µM (inactive) | 83.9 µM (inactive)
10 | NS(=O)(=O)c1ccc(CNC(=S)NC(=O)Nc2ccc(Cl)c(Cl)c2)cc1 | 18.6 µM (inactive) | 19.5 µM (inactive) | 18.1 µM (inactive) | 18.9 µM (inactive) | 17.5 µM (inactive) | 32.8 µM (inactive) | 26.2 µM (inactive) | 31.5 µM (inactive) | 16.2 µM (inactive) | 21.7 µM (inactive) | 13.7 µM (inactive) | 15.1 µM (inactive) | 17.3 µM (inactive) | 21.6 µM (inactive) | 21.2 µM (inactive) | 8.57 µM (inactive) | 14.6 µM (inactive) | 17.9 µM (inactive) | 33.3 µM (inactive) | 16.1 µM (inactive)
11 | O=C(CCCN1CCC2(CC1)CC(c1ccccc1)OC2=O)c1ccc(F)cc1 (stereo not given) | 29.6 µM (inactive) | 35.2 µM (inactive) | 16.2 µM (inactive) | 40.1 µM (inactive) | 16.7 µM (inactive) | 23.6 µM (inactive) | 17.8 µM (inactive) | 37.9 µM (inactive) | 24 µM (inactive) | 53.7 µM (inactive) | 19.6 µM (inactive) | 25.2 µM (inactive) | 48.6 µM (inactive) | 39.4 µM (inactive) | 28.4 µM (inactive) | 40.2 µM (inactive) | 35.1 µM (inactive) | > 100 µM (inactive) | 64.9 µM (inactive) | 29.5 µM (inactive)
12 | COc1cc(OC)c2c(c1)OC(c1cccnc1)C(c1ccccc1)C2=O (stereo not given) | > 100 µM (inactive) | > 100 µM (inactive) | 52 µM (inactive) | > 100 µM (inactive) | > 100 µM (inactive) | > 100 µM (inactive) | > 100 µM (inactive) | 80.2 µM (inactive) | > 100 µM (inactive) | > 100 µM (inactive) | > 100 µM (inactive) | > 100 µM (inactive) | > 100 µM (inactive) | > 100 µM (inactive) | > 100 µM (inactive) | 93.3 µM (inactive) | 34.4 µM (inactive) | > 100 µM (inactive) | > 100 µM (inactive) | > 100 µM (inactive)
13 | O=C1Sc2ccccc2NC1=C(C(=O)c1ccccc1)C(=O)c1ccccc1 | 8.75 µM (inactive) | 2.44 µM (inactive) | 26.5 µM (inactive) | 30.2 µM (inactive) | 31.6 µM (inactive) | 17.5 µM (inactive) | 41.2 µM (inactive) | 69.8 µM (inactive) | 34.8 µM (inactive) | 14.9 µM (inactive) | 13.5 µM (inactive) | 27 µM (inactive) | 18.2 µM (inactive) | > 100 µM (inactive) | 26.5 µM (inactive) | 20.6 µM (inactive) | 19.4 µM (inactive) | 38.4 µM (inactive) | 21.2 µM (inactive) | 2.88 µM (inactive)
14 | O=c1oc2cc(O)ccc2cc1-c1nc2ccccc2o1 | 23.3 µM (inactive) | 32.8 µM (inactive) | 1.07 µM (active) | 40.3 µM (inactive) | 63.8 µM (inactive) | 43.4 µM (inactive) | 39.5 µM (inactive) | 29.8 µM (inactive) | 29.2 µM (inactive) | 32.2 µM (inactive) | 44.4 µM (inactive) | 20 µM (inactive) | 49.7 µM (inactive) | 43.5 µM (inactive) | 58.2 µM (inactive) | 42.4 µM (inactive) | 21.9 µM (inactive) | 29.1 µM (inactive) | 33.3 µM (inactive) | 30.4 µM (inactive)
